According to US11395847B2, “Acylated GLP-1/GLP-2 dual agonists” (Zealand Pharma A/S, priority 2016, dated 2022):
Read-outs that look alike come from different tables or passages of the source. Where a SMILES comes first, the peptide text is derived from it.

Tests used:
[1] = Chemical stability (RP-HPLC normalized purity after incubation at 40° C.); type: physicochemical; conditions: 14-day incubation, 0.2 mg/ml, normalized purity (area-%); for pH 6 normalized stability: pH 6, 40° C.; for pH 7 normalized stability: pH 7, 40° C.
How it was run: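 Peptide at 0.2 mg/ml final in water adjusted to pH 6, 7, 7.5 or 9, incubated at 40° C for 14 days. Purity measured as main-peak area-% by C18 RP-HPLC (acetonitrile/TFA/water gradient, UV 220 nm) and normalized to T=0 set at 100 for each pH.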

human GLP-2 receptor = biological target: T1, human GLP-2 receptor (Homo sapiens, UniProt O95838, D470N); assay: GLP-2 receptor potency assay (cAMP ALPHASCREEN, HEK293 cells stably expressing GLP-2 R); type: cell-based; conditions: cAMP response, HEK293 cells expressing human GLP-2 R; read-out: EC50 GLP-2
T1 construct: expressed in transfected cells
T1 sequence (O95838 1-553 D470N): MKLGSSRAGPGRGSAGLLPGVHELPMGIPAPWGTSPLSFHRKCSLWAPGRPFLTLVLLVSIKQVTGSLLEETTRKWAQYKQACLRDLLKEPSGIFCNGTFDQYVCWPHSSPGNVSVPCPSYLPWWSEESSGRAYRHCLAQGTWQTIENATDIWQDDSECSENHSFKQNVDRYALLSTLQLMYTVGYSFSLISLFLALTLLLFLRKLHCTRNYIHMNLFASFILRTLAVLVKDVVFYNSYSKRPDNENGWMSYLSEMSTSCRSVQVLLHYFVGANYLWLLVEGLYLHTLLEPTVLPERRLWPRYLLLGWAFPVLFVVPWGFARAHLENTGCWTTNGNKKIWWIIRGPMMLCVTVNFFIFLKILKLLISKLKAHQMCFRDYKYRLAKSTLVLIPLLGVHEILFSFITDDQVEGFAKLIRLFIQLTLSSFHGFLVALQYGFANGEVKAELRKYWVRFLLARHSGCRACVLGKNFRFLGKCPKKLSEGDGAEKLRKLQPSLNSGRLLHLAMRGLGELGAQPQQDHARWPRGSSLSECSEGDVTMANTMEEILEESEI
How it was run: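 HEK293 clones stably transfected with the human GLP-2 receptor, selected with G418, were used. Intracellular cAMP was quantified by AlphaScreen. Responses were normalised to positive and vehicle controls, and EC50 and maximal response were taken from concentration-response curves.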

human GLP-1 receptor = biological target: T2, human GLP-1 receptor (Homo sapiens, UniProt P43220); assay: GLP-1 receptor potency assay (cAMP ALPHASCREEN, HEK293 cells stably expressing GLP-1 R); type: cell-based; conditions: cAMP response, HEK293 cells expressing human GLP-1 R
T2 construct: expressed in transfected cells
How it was run: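 Clonal HEK293 line stably transfected with human GLP-1R (G418-selected) was treated with test compounds and the cAMP response quantified by ALPHASCREEN. Signals were normalized to positive control and vehicle, with EC50 and maximal response taken from concentration-response curves.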

[2] = Solubility assessment (turbidity absorbance at 325 nm); type: physicochemical
How it was run: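 Peptide stock at 2 mg/ml in water at pH 2.5 diluted 1:1 into 100 mM acetate (pH 4.0, 5.0), histidine (pH 6.0, 7.0) or phosphate (pH 6.0, 7.0, 7.5) buffer. Absorbance at 280 and 325 nm read at ambient temperature (typically 25 °C), single samples (n=1).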

T2 sequence (P43220 24-463): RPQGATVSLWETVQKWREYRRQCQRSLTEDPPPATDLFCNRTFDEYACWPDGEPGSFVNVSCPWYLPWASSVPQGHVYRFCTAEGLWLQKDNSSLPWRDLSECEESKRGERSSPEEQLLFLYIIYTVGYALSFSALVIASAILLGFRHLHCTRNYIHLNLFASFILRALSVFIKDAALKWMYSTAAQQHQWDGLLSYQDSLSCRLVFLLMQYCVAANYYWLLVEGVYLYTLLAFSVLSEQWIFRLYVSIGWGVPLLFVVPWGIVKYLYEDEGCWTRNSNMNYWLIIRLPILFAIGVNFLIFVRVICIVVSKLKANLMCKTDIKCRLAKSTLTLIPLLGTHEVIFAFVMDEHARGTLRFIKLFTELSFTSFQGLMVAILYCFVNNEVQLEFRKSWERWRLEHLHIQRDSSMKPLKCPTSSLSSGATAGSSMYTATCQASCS

pH 6 normalized stability [1]	pH 7 normalized stability [1]	EC50 (human GLP-2 receptor) [nM]	EC50 (human GLP-1 receptor) [nM]	solubility ([2]; 100 mM acetate buffer pH 4.0, ambient temperature, read-out: Solubility Acetate buffer pH 4) [µg/mL]	solubility ([2]; 100 mM acetate buffer pH 5.0, ambient temperature, read-out: Solubility Acetate buffer pH 5) [µg/mL]	solubility ([2]; 100 mM histidine buffer pH 6.0, ambient temperature, read-out: Solubility Histidine buffer pH 6) [µg/mL]	solubility ([2]; 100 mM histidine buffer pH 7.0, ambient temperature, read-out: Solubility Histidine buffer pH 7) [µg/mL]	solubility ([2]; 100 mM phosphate buffer pH 6.0, ambient temperature, read-out: Solubility Phosphate buffer pH 6) [µg/mL]	solubility ([2]; 100 mM phosphate buffer pH 7.0, ambient temperature, read-out: Solubility Phosphate buffer pH 7) [µg/mL]	solubility ([2]; 100 mM phosphate buffer pH 7.5, ambient temperature, read-out: Solubility Phosphate buffer pH 7.5) [µg/mL]	SMILES
A (>90% normalised stability)	A (>90% normalised stability)	0.24	0.27	–	–	–	–	–	–	–	CC[C@H](C)[C@H](NC(=O)[C@H](Cc1ccccc1)NC(=O)[C@H](CC(=O)O)NC(=O)[C@H](CCCNC(=N)N)NC(=O)[C@H](C)NC(=O)[C@H](C)NC(=O)[C@H](CCC(N)=O)NC(=O)[C@H](CCCCNC(=O)CC[C@H](NC(=O)CCCCCCCCCCCCCCCCC(=O)O)C(=O)O)NC(=O)[C@H](CC(=O)O)NC(=O)[C@H](CC(C)C)NC(=O)[C@@H](NC(=O)[C@@H](NC(=O)[C@H](C)NC(=O)[C@H](CC(C)C)NC(=O)[C@H](CCC(=O)O)NC(=O)[C@H](CO)NC(=O)[C@@H](NC(=O)[C@H](Cc1ccccc1)NC(=O)[C@H](CO)NC(=O)CNC(=O)[C@H](CCC(=O)O)NC(=O)C(C)(C)NC(=O)[C@@H](N)Cc1c[nH]cn1)[C@@H](C)O)[C@@H](C)O)[C@@H](C)CC)C(=O)N[C@@H](C)C(=O)N[C@@H](Cc1c[nH]c2ccccc12)C(=O)N[C@@H](CC(C)C)C(=O)N[C@H](C(=O)N[C@@H](CO)C(=O)N[C@@H](Cc1c[nH]cn1)C(=O)N[C@@H](CCCCN)C(=O)N[C@H](C(=O)N[C@H](C(=O)N[C@@H](CC(=O)O)C(=O)O)[C@@H](C)O)[C@@H](C)CC)[C@@H](C)CC [Compound 31] (HELM PEPTIDE1{H.[Aib].E.G.S.F.T.S.E.L.A.T.I.L.D.K.Q.A.A.R.D.F.I.A.W.L.I.S.H.K.I.T.D}|PEPTIDE2{[O=C(O)CCCCCCCCCCCCCCCCC(=O)[*:2]].[gGlu]}$PEPTIDE1,PEPTIDE2,16:R3-2:R2$$$V2.0)
–	A (>90% normalised stability)	0.38	0.31	–	–	–	–	–	–	–	CC[C@H](C)[C@H](NC(=O)[C@H](Cc1ccccc1)NC(=O)[C@H](CC(=O)O)NC(=O)[C@H](CCCNC(=N)N)NC(=O)[C@H](C)NC(=O)[C@H](C)NC(=O)[C@H](CCC(N)=O)NC(=O)[C@H](CCCCNC(=O)CC[C@H](NC(=O)CCCCCCCCCCCCCCCCC(=O)O)C(=O)O)NC(=O)[C@H](CC(=O)O)NC(=O)[C@H](CC(C)C)NC(=O)[C@@H](NC(=O)[C@@H](NC(=O)[C@H](C)NC(=O)[C@H](CC(C)C)NC(=O)[C@H](CCC(=O)O)NC(=O)[C@H](CO)NC(=O)[C@@H](NC(=O)[C@H](Cc1ccccc1)NC(=O)[C@H](CO)NC(=O)CNC(=O)[C@H](CCC(=O)O)NC(=O)C(C)(C)NC(=O)[C@@H](N)Cc1c[nH]cn1)[C@@H](C)O)[C@@H](C)O)[C@@H](C)CC)C(=O)N[C@@H](C)C(=O)N[C@@H](Cc1c[nH]c2ccccc12)C(=O)N[C@@H](CC(C)C)C(=O)N[C@H](C(=O)N[C@@H](CCCNC(=N)N)C(=O)N[C@@H](Cc1c[nH]cn1)C(=O)N[C@@H](CCCCN)C(=O)N[C@H](C(=O)N[C@H](C(=O)N[C@@H](CC(=O)O)C(=O)O)[C@@H](C)O)[C@@H](C)CC)[C@@H](C)CC [Compound 30] (HELM PEPTIDE1{H.[Aib].E.G.S.F.T.S.E.L.A.T.I.L.D.K.Q.A.A.R.D.F.I.A.W.L.I.R.H.K.I.T.D}|PEPTIDE2{[O=C(O)CCCCCCCCCCCCCCCCC(=O)[*:2]].[gGlu]}$PEPTIDE1,PEPTIDE2,16:R3-2:R2$$$V2.0)
A (>90% normalised stability)	B (>80% stability)	0.24	0.13	< 1000	< 1000	≥ 1000	≥ 1000	≥ 1000	≥ 1000	≥ 1000	CC[C@H](C)[C@H](NC(=O)[C@H](CC(C)C)NC(=O)[C@H](Cc1c[nH]c2ccccc12)NC(=O)[C@H](C)NC(=O)[C@@H](NC(=O)[C@H](Cc1ccccc1)NC(=O)[C@H](CC(=O)O)NC(=O)[C@H](CCCNC(=N)N)NC(=O)[C@H](C)NC(=O)[C@H](C)NC(=O)[C@H](CCC(N)=O)NC(=O)[C@H](CCCCNC(=O)CC[C@H](NC(=O)CCCCCCCCCCCCCCCCC(=O)O)C(=O)O)NC(=O)[C@H](CC(=O)O)NC(=O)[C@H](CC(C)C)NC(=O)[C@@H](NC(=O)[C@@H](NC(=O)[C@H](C)NC(=O)[C@H](CC(C)C)NC(=O)[C@H](CCC(=O)O)NC(=O)[C@H](CO)NC(=O)[C@@H](NC(=O)[C@H](Cc1ccccc1)NC(=O)[C@@H](NC(=O)CNC(=O)[C@H](CCC(=O)O)NC(=O)C(C)(C)NC(=O)[C@@H](N)Cc1c[nH]cn1)[C@@H](C)O)[C@@H](C)O)[C@@H](C)O)[C@@H](C)CC)[C@@H](C)CC)C(=O)N[C@@H](C)C(=O)N[C@@H](Cc1c[nH]cn1)C(=O)N[C@@H](CCCCN)C(=O)N[C@H](C(=O)N[C@H](C(=O)N[C@@H](CC(=O)O)C(=O)O)[C@@H](C)O)[C@@H](C)CC [Compound 23] (HELM PEPTIDE1{H.[Aib].E.G.T.F.T.S.E.L.A.T.I.L.D.K.Q.A.A.R.D.F.I.A.W.L.I.A.H.K.I.T.D}|PEPTIDE2{[O=C(O)CCCCCCCCCCCCCCCCC(=O)[*:2]].[gGlu]}$PEPTIDE1,PEPTIDE2,16:R3-2:R2$$$V2.0)
C (<80% normalized stability)	B (>80% stability)	0.083	0.49	–	–	–	–	–	–	–	CC[C@H](C)[C@H](NC(=O)[C@H](Cc1ccccc1)NC(=O)[C@H](CC(=O)O)NC(=O)[C@H](CCCNC(=N)N)NC(=O)[C@H](C)NC(=O)[C@H](C)NC(=O)[C@H](CCC(N)=O)NC(=O)[C@H](CCCCNC(=O)CC[C@H](NC(=O)CCCCCCCCCCCCCCCCC(=O)O)C(=O)O)NC(=O)[C@H](CC(=O)O)NC(=O)[C@H](CC(C)C)NC(=O)[C@@H](NC(=O)[C@@H](NC(=O)[C@H](C)NC(=O)[C@H](CC(C)C)NC(=O)[C@H](CCC(=O)O)NC(=O)[C@H](CO)NC(=O)[C@H](CO)NC(=O)[C@H](Cc1ccccc1)NC(=O)[C@H](CO)NC(=O)CNC(=O)[C@H](CC(=O)O)NC(=O)C(C)(C)NC(=O)[C@@H](N)Cc1c[nH]cn1)[C@@H](C)O)[C@@H](C)CC)C(=O)N[C@@H](C)C(=O)N[C@@H](Cc1c[nH]c2ccccc12)C(=O)N[C@@H](CC(C)C)C(=O)N[C@H](C(=O)N[C@@H](CCC(N)=O)C(=O)N[C@@H](Cc1c[nH]cn1)C(=O)N[C@@H](CCCCN)C(=O)N[C@H](C(=O)N[C@H](C(=O)N[C@@H](CC(=O)O)C(=O)O)[C@@H](C)O)[C@@H](C)CC)[C@@H](C)CC [A, reference compound] (HELM PEPTIDE1{H.[Aib].D.G.S.F.S.S.E.L.A.T.I.L.D.K.Q.A.A.R.D.F.I.A.W.L.I.Q.H.K.I.T.D}|PEPTIDE2{[O=C(O)CCCCCCCCCCCCCCCCC(=O)[*:2]].[gGlu]}$PEPTIDE1,PEPTIDE2,16:R3-2:R2$$$V2.0)
